Measured values published in patent publication US12491180B2, “Application of compound in treating pneumonia” (SHENZHEN OPTIMUM BIOLOGICAL TECHNOLOGY CO., LTD., priority 2019, dated 2025).
Values after ≈ are worked out from the molar mass of the structure shown.

Assays:
Assay in all cases: MIC, solid dilution method
[1] = test system: Enterobacter aerogenes 8193; format: cell-based; conditions: Klebsiella aerogenes; E. ae 8193, CRE clinical isolate; MHA agar, 37° C., 16-20 hours; read-out: MIC
Description: CRE Enterobacter aerogenes 8193, a total of 1 strain;
(§1) The above-mentioned glycerol-preserved strains were taken out from the −80° C. refrigerator, streaked and inoculated on MHA plates, labeled, and cultured overnight in a 37° C. incubator.
(§2) The inoculum was prepared directly from bacterial suspension, and several recovered colonies were picked and directly prepared into a bacterial suspension with a turbidity of No. 0.5 McFarland units in normal saline, and a 10-fold dilution was made during inoculation.
(§3) 6 bottles of MHA culture medium 500 mL/bottle were prepared, and the pH was adjusted to 7.2-7.4, sterilized at 121° C. for 15 min, and the medium was placed in a 55° C. water bath to keep warm.
(§4) Sterile blank petri dishes were taken, and marked with each FL drug/concentration according to 2-fold dilution, and 10 concentrations of each drug starting from 8 μg/mL were tested.
(§5) […]; 20 mL was aspirated and added to a petri dish consistent with the mark, and then 20 mL of MHA culture medium was added to the rest of the drug-containing culture medium, mixed evenly, that is, the 2-fold diluted drug-containing culture medium; 20 mL was aspirated and added to the petri dish consistent with the mark, and then diluted to the 10th concentration and the […] respectively by repeating the above-mentioned steps, and then poured into the petri dish.
(§6) 4 bacterial control petri dishes without drug were prepared at the same time as a control.
(§7) The positioning needle and the inoculation needle were installed according to the order of placement of the colony on the inoculation plate. After inoculation, a bacterial solution circle was formed on the petri dish. After the bacterial solution was absorbed by the agar, the petri dish was placed in an incubator at 37° C. for overnight incubation (16-20 hours), and then taken out.
(§8) The minimum inhibitory concentrations of the compounds against the CRE and CSE strains were determined by the solid dilution method, and the results are shown in Tables 3 and 4.

[2] = test system: Klebsiella pneumoniae 12559; format: cell-based; conditions: K.p 12559, CRE clinical isolate, MHA agar, 37° C., 16-20 hours, read-out: MIC
Description: (§9) (2) Clinical isolated strains: CRE Klebsiella pneumoniae 5846, 11544, 12559, 13249 and CSE Klebsiella pneumoniae 8733, a total of 5 strains;
as §1, §2, §3, §4, §5, §6, §7, §8

[3] = test system: Klebsiella pneumoniae 8733; format: cell-based; conditions: K.p 8733, CSE clinical isolate, MHA agar, 37° C., 16-20 hours, read-out: MIC
Description: as §9, §1, §2, §3, §4, §5, §6, §7, §8

[4] = test system: Klebsiella pneumoniae 11544; format: cell-based; conditions: K.p 11544, CRE clinical isolate, MHA agar, 37° C., 16-20 hours, read-out: MIC
Description: as §9, §1, §2, §3, §4, §5, §6, §7, §8

[5] = test system: Klebsiella pneumoniae 5846; format: cell-based; conditions: K.p 5846, CRE clinical isolate, MHA agar, 37° C., 16-20 hours, read-out: MIC
Description: as §9, §1, §2, §3, §4, §5, §6, §7, §8

[6] = test system: Klebsiella pneumoniae 13249; format: cell-based; conditions: K.p 13249, CRE clinical isolate, MHA agar, 37° C., 16-20 hours, read-out: MIC
Description: as §9, §1, §2, §3, §4, §5, §6, §7, §8

[7] = test system: Citrobacter freundii 9434; format: cell-based; conditions: C.f 9434, CRE clinical isolate, MHA agar, 37° C., 16-20 hours, read-out: MIC
Description: (§10) CRE Citrobacter freundii 9434, 9484 and CSE Citrobacter freundii 7646, a total of 3 strains;
as §1, §2, §3, §4, §5, §6, §7, §8

[8] = test system: Citrobacter freundii 9484; format: cell-based; conditions: C.f 9484, CRE clinical isolate, MHA agar, 37° C., 16-20 hours, read-out: MIC
Description: as §10, §1, §2, §3, §4, §5, §6, §7, §8

[9] = test system: Citrobacter freundii 7646; format: cell-based; conditions: C.f 7646, CSE clinical isolate, MHA agar, 37° C., 16-20 hours, read-out: MIC
Description: as §10, §1, §2, §3, §4, §5, §6, §7, §8

[10] = test system: Enterobacter cloacae 11699; format: cell-based; conditions: E. cl 11699, CSE clinical isolate, MHA agar, 37° C., 16-20 hours, read-out: MIC
Description: as §1, §2, §4, §6, §7

[11] = test system: Enterobacter cloacae 11090; format: cell-based; conditions: E. cl 11090, CRE clinical isolate, MHA agar, 37° C., 16-20 hours, read-out: MIC
Description: as §1, §2, §4, §6, §7

[12] = test system: Enterobacter cloacae 14653; format: cell-based; conditions: E. cl 14653, CRE clinical isolate, MHA agar, 37° C., 16-20 hours, read-out: MIC
Description: as §1, §2, §4, §6, §7

[13] = test system: E. coli 11256; format: cell-based; conditions: Escherichia coli; E. coli 11256; MHA agar, 37° C., 16-20 hours; read-out: MIC
Description: as §1, §2, §3, §4, §5, §6, §7, §8

[14] = test system: Escherichia coli 13897; format: cell-based; conditions: E. coli 13897, CRE clinical isolate, MHA agar, 37° C., 16-20 hours, read-out: MIC
Description: as §1, §2, §3, §4, §5, §6, §7, §8

[15] = test system: Escherichia coli 11119; format: cell-based; conditions: E. coli 11119, CRE clinical isolate, MHA agar, 37° C., 16-20 hours, read-out: MIC
Description: as §1, §2, §3, §4, §5, §6, §7, §8

[16] = test system: Escherichia coli 14828; format: cell-based; conditions: E. coli 14828, CRE clinical isolate, MHA agar, 37° C., 16-20 hours, read-out: MIC
Description: as §1, §2, §3, §4, §5, §6, §7, §8

[17] = test system: Klebsiella oxytoca 14153; format: cell-based; conditions: K. ox 14153, CRE clinical isolate, MHA agar, 37° C., 16-20 hours, read-out: MIC
Description: as §1, §2, §3, §4, §5, §6, §7, §8

[18] = test system: Klebsiella oxytoca 12391; format: cell-based; conditions: K. ox 12391, CRE clinical isolate, MHA agar, 37° C., 16-20 hours, read-out: MIC
Description: as §1, §2, §3, §4, §5, §6, §7, §8

[19] = test system: Klebsiella oxytoca 14151; format: cell-based; conditions: K. ox 14151, CRE clinical isolate, MHA agar, 37° C., 16-20 hours, read-out: MIC
Description: as §1, §2, §3, §4, §5, §6, §7, §8

[20] = test system: Klebsiella oxytoca 6777; format: cell-based; conditions: K. ox 6777, CRE clinical isolate, MHA agar, 37° C., 16-20 hours, read-out: MIC
Description: as §1, §2, §3, §4, §5, §6, §7, §8

[21] = test system: E. ae 14186; format: cell-based, Enterobacter aerogenes; conditions: Klebsiella aerogenes; E. ae 14186; MHA agar, 37° C., 16-20 hours; read-out: MIC
Description: as §1, §2, §3, §4, §5, §6, §7, §8

Row | MIC [2] [µg/mL] | MIC [3] [µg/mL] | MIC [4] [µg/mL] | MIC [5] [µg/mL] | MIC [6] [µg/mL] | MIC [7] [µg/mL] | MIC [8] [µg/mL] | MIC [9] [µg/mL] | MIC [10] [µg/mL] | MIC [11] [µg/mL] | MIC [12] [µg/mL] | MIC [13] [µg/mL] | MIC [14] [µg/mL] | MIC [15] [µg/mL] | MIC [16] [µg/mL] | MIC [17] [µg/mL] | MIC [18] [µg/mL] | MIC [19] [µg/mL] | MIC [20] [µg/mL] | Structure (SMILES) | MIC [1] [µg/mL] | other results
1 | 0.5 (≈ 0.729 µM) | 0.25 (≈ 0.365 µM) | > 8 | 0.5 (≈ 0.729 µM) | > 8 | 0.5 (≈ 0.729 µM) | 0.125 (≈ 0.182 µM) | 0.5 (≈ 0.729 µM) | 0.125 (≈ 0.182 µM) | 2 (≈ 2.92 µM) | 1 (≈ 1.46 µM) | 0.125 (≈ 0.182 µM) | 0.25 (≈ 0.365 µM) | > 8 | 0.5 (≈ 0.729 µM) | 1 (≈ 1.46 µM) | 1 (≈ 1.46 µM) | 1 (≈ 1.46 µM) | 1 (≈ 1.46 µM) | CC1(C)[C@H](NC(=O)/C(=N\O[C@@H](COc2ccc3c(c2)CN(C(=N)NOCCN)C3)C(=O)O)c2csc(N)n2)C(=O)N1OS(=O)(=O)O [Compound 43] | 2 (≈ 2.92 µM) | MIC [21]: 1 µg/mL (≈ 1.46 µM)
2 | 0.125 (≈ 0.187 µM) | 0.06 (≈ 0.0896 µM) | 8 (≈ 11.9 µM) | 0.125 (≈ 0.187 µM) | 8 (≈ 11.9 µM) | 0.125 (≈ 0.187 µM) | 0.03 (≈ 0.0448 µM) | 0.125 (≈ 0.187 µM) | 0.03 (≈ 0.0448 µM) | 0.5 (≈ 0.747 µM) | 0.25 (≈ 0.373 µM) | 0.03 (≈ 0.0448 µM) | 0.125 (≈ 0.187 µM) | 4 (≈ 5.97 µM) | 0.125 (≈ 0.187 µM) | 0.25 (≈ 0.373 µM) | 0.25 (≈ 0.373 µM) | 0.25 (≈ 0.373 µM) | 0.25 (≈ 0.373 µM) | CC1(C)[C@H](NC(=O)/C(=N\O[C@@H](COc2ccc3c(c2)CN(C(=N)NCCN)C3)C(=O)O)c2csc(N)n2)C(=O)N1OS(=O)(=O)O [Compound 44] | 0.5 (≈ 0.747 µM) | MIC [21]: 0.25 µg/mL (≈ 0.373 µM)
3 | 0.25 (≈ 0.315 µM) | 0.125 (≈ 0.158 µM) | 8 (≈ 10.1 µM) | 0.125 (≈ 0.158 µM) | 8 (≈ 10.1 µM) | 0.125 (≈ 0.158 µM) | 0.06 (≈ 0.0757 µM) | 0.125 (≈ 0.158 µM) | 0.125 (≈ 0.158 µM) | 1 (≈ 1.26 µM) | 0.5 (≈ 0.631 µM) | 0.03 (≈ 0.0378 µM) | 0.125 (≈ 0.158 µM) | 4 (≈ 5.04 µM) | 0.125 (≈ 0.158 µM) | 0.25 (≈ 0.315 µM) | 0.25 (≈ 0.315 µM) | 0.25 (≈ 0.315 µM) | 0.25 (≈ 0.315 µM) | CC1(C)[C@H](NC(=O)/C(=N\O[C@@H](COc2ccc3c(c2)CN(/C(=N\[C@@H]2CCCNC2)N[C@@H]2CCCNC2)C3)C(=O)O)c2csc(N)n2)C(=O)N1OS(=O)(=O)O [Compound 46] | 1 (≈ 1.26 µM) | MIC [21]: 0.25 µg/mL (≈ 0.315 µM)
